Biological target: protein-protein interaction between SOS1 and KRAS G12D (Homo sapiens (Human), UniProt Q07889)
Assay: KRAS::SOS1 AlphaScreen Binding Assay
Conditions: KRAS G12D::SOS1 AlphaScreen; measured without EDTA unless marked with an asterisk
Source text: KRAS::SOS1 AlphaScreen Binding Assay
Low IC50 values are indicative of high potency of the SOS1 inhibitor compound in this assay setting:
Reagents: • GST-tagged SOS1 (564_1049_GST_TEV_ECO) produced in-house • GST-TEV-SOS1 (564-1049) is purchased from Viva Biotech Ltd. • 6×His-Tev-K-RasG12D(1-169)Avi is purchased from Xtal BioStructures, Inc. (Lot # X129-110) • GDP (Sigma Cat No G7127) • AlphaLISA Glutathione Acceptor Beads (PerkinElmer, Cat No AL109) • AlphaScreen Streptavidin Donor Beads (PerkinElmer Cat No 6760002) • Assay plates: Proxiplate-384 PLUS, white (PerkinElmer, Cat No 6008289)
10 nM (final assay concentration) KRAS G12D, 10 μM (final assay concentration) GDP and 5 nM (final assay concentration) GST-SOS1 are mixed in assay buffer prior to use and kept at room temperature.
AlphaLISA Glutathione Acceptor Beads and AlphaScreen Streptavidin Donor Beads are mixed in assay buffer at a concentration of 10 μg/mL (final assay concentration) each prior to use and kept at room temperature.
Compounds are diluted to a final start concentration of 100 μM and are tested in duplicate. Assay-ready plates (ARPs) are generated using an Access Labcyte Workstation with a Labcyte Echo 550 or 555 accoustic dispenser. For compound a start concentration of 100 μM, 150 nL of compound solution is transferred per well in 11 concentrations in duplicate with serial 1:5 dilutions.
The assay is run using a fully automated robotic system in a darkened room below 100 Lux. 10 μL of KRAS::SOS1 GDP mix is added into columns 1-24 to the 150 nL of compound solution (final dilution in the assay 1:100, final DMSO concentration 1%).
After a 30 minute incubation time 5 μL of bead mix is added into columns 1-23. Plates are kept at room temperature in a darkened incubator. After a further 60 minute incubation, the signal is measured using a PerkinElmer Envision HTS Multilabel Reader using the AlphaScreen specifications from PerkinElmer. Each plate contains the following controls: • diluted DMSO+KRAS::SOS1 GDP mix+bead mix • diluted DMSO+KRAS::SOS1 GDP mix
IC50 values are calculated and analyzed using a 4 parametric logistic model.

Chain of protein-protein interaction between SOS1 and KRAS G12D (Q07889 564-1049, stated change not applied): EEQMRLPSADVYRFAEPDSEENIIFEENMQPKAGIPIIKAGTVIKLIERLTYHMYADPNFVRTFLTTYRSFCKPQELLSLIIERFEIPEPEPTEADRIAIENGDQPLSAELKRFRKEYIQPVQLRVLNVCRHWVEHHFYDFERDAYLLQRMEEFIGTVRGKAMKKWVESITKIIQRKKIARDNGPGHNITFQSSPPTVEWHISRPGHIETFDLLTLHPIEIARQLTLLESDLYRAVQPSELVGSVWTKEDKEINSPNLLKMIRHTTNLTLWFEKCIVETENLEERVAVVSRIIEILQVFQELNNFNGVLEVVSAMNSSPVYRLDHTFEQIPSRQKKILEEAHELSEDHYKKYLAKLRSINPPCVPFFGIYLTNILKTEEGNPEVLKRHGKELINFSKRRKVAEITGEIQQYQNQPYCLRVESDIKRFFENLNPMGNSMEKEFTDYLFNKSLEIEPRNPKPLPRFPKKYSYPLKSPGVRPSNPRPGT

Compound | IC50
Cc1c(=O)n([C@H]2C[C@H](F)C2)cc2c(N[C@H](C)c3cccc(C(F)F)c3F)ncnc12 [I-168] | 9 nM
Cc1c(=O)n(C23CCC(F)(CC2)CC3)cc2c(N[C@H](C)c3cccc(C(F)F)c3F)ncnc12 [I-171] | 6 nM
Cc1c(=O)n(C2(C)CC2)cc2c(N[C@H](C)c3cccc(C(C)(F)F)c3F)ncnc12 [I-174] | 9 nM
Cc1c(=O)n(C2(CF)CC2)cc2c(N[C@H](C)c3cccc(C(C)(F)F)c3F)ncnc12 [I-175] | 13 nM
Cc1c(=O)n(C23CC(F)(C2)C3)cc2c(N[C@H](C)c3cccc(C(C)(F)F)c3F)ncnc12 [I-176] | 10 nM
Cc1c(=O)n(C23CCC(CC2)C3)cc2c(N[C@H](C)c3cccc4c3CCC4(F)F)ncnc12 [I-177] | 2 nM
Cc1c(=O)n(C23CC(F)(C2)C3)cc2c(N[C@H](C)c3cccc(C(F)(F)C(C)(C)O)c3F)ncnc12 [I-178] | 5 nM

Same assay, conditions: Table 20; KRAS::SOS1 AlphaScreen (SOS1 / KRAS G12D)

Compound | IC50
Cc1nc(N[C@H](C)c2cccc(C(F)F)c2C)c2cn(C3(C(F)F)CC3)c(=O)cc2n1 [I-21] | 3 nM
Cc1nc(N[C@H](C)c2cccc(C(F)F)c2C)c2cn(C3(C)CCC3)c(=O)cc2n1 [I-23] | 4 nM
Cc1nc(N[C@H](C)c2cccc(C(F)(F)F)c2C)c2cn(C3(C)CC3)c(=O)cc2n1 [I-37] | 5 nM
Cc1nc(N[C@H](C)c2cccc(C(F)(F)F)c2C)c2cn(C3(C(F)(F)F)CC3)c(=O)cc2n1 [I-39] | 18 nM
Cc1nc(N[C@H](C)c2cccc(C(C)(F)F)c2F)c2cn(C3(C)CC3)c(=O)cc2n1 [I-52] | 4 nM
Cc1nc(N[C@H](C)c2cccc3c2CCC3(F)F)c2cn(C3(C(F)F)CC3)c(=O)cc2n1 [I-58] | 2 nM
Cc1nc(N[C@H](C)c2cccc3c2CCC3(F)F)c2cn(C34CC(C3)C4)c(=O)cc2n1 [I-59] | 3 nM
Cc1nc(N[C@H](C)c2cccc(C(F)(F)CO)c2F)c2cn(C34CCC(CC3)C4)c(=O)cc2n1 [I-61] | 1 nM
C[C@@H](Nc1ncnc2cc(=O)n(C34CCC(F)(CC3)CC4)cc12)c1cccc(C(F)F)c1F [I-73] | 3 nM
Cc1nc(N[C@H](C)c2cccc3c2OCC3(F)F)c2cn(C3(C(F)F)CC3)c(=O)cc2n1 [I-102] | 4 nM
Cc1nc(N[C@H](C)c2cccc3c(F)coc23)c2cn(C3(C(F)F)CC3)c(=O)cc2n1 [I-103] | 5 nM

Test system: ERK phosphorylation in DLD-1 cells (KRAS G13D)
Assay: ERK Phosphorylation Assay (AlphaLISA SureFire Ultra p-ERK1/2)
Type: cell-based
Conditions: Homo sapiens, 1 h compound, EGF 50 ng/mL 10 min, read-out: pERK
Description: ERK Phosphorylation Assay
Low IC50 values are indicative of high potency of the SOS1 inhibitor compounds in this assay setting.
ERK phosphorylation assays are performed using the following human cell lines: DLD-1 (ATCC CCL-221): human colon cancer with a KRAS G13D mutation;
DLD-1 cells (ATCC CCL-221) are seeded at 50,000 cells per well in/60 μL of RPMI with 10% FBS, non-essential amino acids, pyruvate and glutamax in Greiner TC 384 plates. The cells are incubated for 1 h at room temperature and then incubated overnight in an incubator at 37° C. and 5% CO2 in a humidified atmosphere. 60 nL compound solution (10 mM DMSO stock solution) is then added using a Labcyte Echo 550 device. After a 1 h incubation in the aforementioned incubator, 3 μL Epidermal Growth Factor (EGF, final concentration 50 ng/mL) is added. 10 minutes later the medium is removed, and the cells lysed by addition of 20 μL of 1.6-fold lysis buffer from the AlphaLISA SureFire Ultra pERK1/2 (Thr202/Tyr204) Assay Kit with added protease inhibitors, 100 nM trametinib+100 nM staurosporine. After 20 minutes of incubation at room temperature with shaking, 6 μL of each lysate sample is transferred to a 384-well Proxiplate and analyzed for pERK (Thr202/Tyr204) with the AlphaLISA SureFire Ultra pERK1/2 (Thr202/Tyr204) Assay Kit. 3 μL Acceptor Mix and 3 μL Donor Mix are added under subdued light and incubated for 2 h at room temperature in the dark, before the signal is measured on a Perkin Elmer Envision plate reader using 384 AlphaScreen settings for Proxiplates. Data are fitted by iterative calculation with variable hill slope. The sigmoidal curve slope is fitted using a default fitting curve to ascertain IC50 values.

Compound | IC50
Cc1nc(N[C@H](C)c2cccc(C(F)F)c2C)c2cn(C3(C(F)F)CC3)c(=O)cc2n1 [I-21] | 113 nM
Cc1nc(N[C@H](C)c2cccc(C(F)F)c2C)c2cn(C3(C)CCC3)c(=O)cc2n1 [I-23] | 111 nM
Cc1nc(N[C@H](C)c2cccc(C(F)(F)F)c2C)c2cn(C3(C)CC3)c(=O)cc2n1 [I-37] | 61 nM
Cc1nc(N[C@H](C)c2cccc(C(F)(F)F)c2C)c2cn(C3(CF)CC3)c(=O)cc2n1 [I-38] | 33 nM
Cc1nc(N[C@H](C)c2cccc(C(F)(F)F)c2C)c2cn(C3(C(F)(F)F)CC3)c(=O)cc2n1 [I-39] | 62 nM
Cc1nc(N[C@H](C)c2cccc(C(C)(F)F)c2F)c2cn(C3(C)CC3)c(=O)cc2n1 [I-52] | 96 nM
Cc1nc(N[C@H](C)c2cccc3c2CCC3(F)F)c2cn(C3(C(F)F)CC3)c(=O)cc2n1 [I-58] | 89 nM
Cc1nc(N[C@H](C)c2cccc3c2CCC3(F)F)c2cn(C34CC(C3)C4)c(=O)cc2n1 [I-59] | 113 nM
Cc1nc(N[C@H](C)c2cccc(C(F)(F)CO)c2F)c2cn(C34CCC(CC3)C4)c(=O)cc2n1 [I-61] | 95 nM
C[C@@H](Nc1ncnc2cc(=O)n(C34CCC(F)(CC3)CC4)cc12)c1cccc(C(F)F)c1F [I-73] | 88 nM
Cc1nc(N[C@H](C)c2cccc3c2OCC3(F)F)c2cn(C3(C(F)F)CC3)c(=O)cc2n1 [I-102] | 67 nM
Cc1nc(N[C@H](C)c2cccc3c(F)coc23)c2cn(C3(C(F)F)CC3)c(=O)cc2n1 [I-103] | 70 nM
Cc1c(=O)n(C23CCC(F)(CC2)CC3)cc2c(N[C@H](C)c3cccc(C(F)F)c3F)ncnc12 [I-171] | 93 nM
Cc1c(=O)n(C23CC(F)(C2)C3)cc2c(N[C@H](C)c3cccc(C(C)(F)F)c3F)ncnc12 [I-176] | 120 nM
Cc1c(=O)n(C23CCC(CC2)C3)cc2c(N[C@H](C)c3cccc4c3CCC4(F)F)ncnc12 [I-177] | 91 nM

Reference: patent US10829487B2, “Benzylamino substituted pyridopyrimidinones and derivatives as SOS1 inhibitors” (Boehringer Ingelheim International GmbH, priority 2017, dated 2020)
